Tests used:
Beta-secretase 1 [1] = molecular target: T1, Beta-secretase 1 (Homo sapiens, UniProt P56817); experiment: Inhibition of recombinant human BACE1 using (7-methoxycoumarin-4-yl)acetyl-SEVNL*DAEFRK(2,4-dinitrophenyl)-RR-NH2) as substrate at 2 uM by FRET assay
Beta-secretase 1 [2] = molecular target: T1, Beta-secretase 1; experiment: Inhibition of recombinant human BACE1 using (7-methoxycoumarin-4-yl)acetyl-SEVNL*DAEFRK(2,4-dinitrophenyl)-RR-NH2) as substrate by FRET assay
Beta-secretase 1 [3] = molecular target: T1, Beta-secretase 1; experiment: Inhibition of recombinant human BACE1 using (7-methoxycoumarin-4-yl)acetyl-SEVNL*DAEFRK(2,4-dinitrophenyl)-RR-NH2) as substrate at 0.2 uM by FRET assay

T1 sequence (P56817 whole entry): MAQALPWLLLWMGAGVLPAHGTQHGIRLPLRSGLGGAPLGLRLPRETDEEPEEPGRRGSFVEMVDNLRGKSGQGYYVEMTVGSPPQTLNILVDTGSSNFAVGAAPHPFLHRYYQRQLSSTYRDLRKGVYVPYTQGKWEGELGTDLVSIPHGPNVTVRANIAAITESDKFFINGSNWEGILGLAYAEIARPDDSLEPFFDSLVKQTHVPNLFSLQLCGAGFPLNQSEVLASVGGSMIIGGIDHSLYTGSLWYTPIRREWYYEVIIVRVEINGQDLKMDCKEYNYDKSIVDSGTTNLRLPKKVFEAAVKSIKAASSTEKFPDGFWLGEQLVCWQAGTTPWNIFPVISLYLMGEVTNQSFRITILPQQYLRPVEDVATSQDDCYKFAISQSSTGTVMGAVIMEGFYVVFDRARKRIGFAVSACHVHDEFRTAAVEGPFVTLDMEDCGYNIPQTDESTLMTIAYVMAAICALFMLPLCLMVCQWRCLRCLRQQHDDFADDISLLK

| Structure (SMILES) | inhibition (Beta-secretase 1 [1]) | IC50 (Beta-secretase 1 [2]) | inhibition (Beta-secretase 1 [3]) |
| --- | --- | --- | --- |
| Cc1ccc([C@@H](C)NC(=O)c2cc(=O)cc(C(=O)N[C@@H](Cc3ccccc3)[C@H](O)C(=O)Nc3cccc(-c4nn[nH]n4)c3)o2)cc1 | 54% |  |  |
| C[C@@H](NC(=O)c1cc(=O)cc(C(=O)N[C@@H](Cc2ccccc2)[C@H](O)C(=O)Nc2cccc(-c3nn[nH]n3)c2)o1)C1CCCCC1 | 26% |  |  |
| CC(C)Sc1cc(C(=O)N[C@@H](Cc2ccccc2)[C@H](O)C(=O)Nc2cccc(-c3nn[nH]n3)c2)nc(C(=O)N2COC[C@@H]2c2ccccc2)c1 | 72% |  |  |
| COc1cc(C(=O)N[C@@H](Cc2ccccc2)[C@H](O)C(=O)Nc2cccc(-c3nn[nH]n3)c2)nc(C(=O)N2COC[C@@H]2c2ccccc2)c1 | 91% | 151 nM | 53% |
| COc1cc(C(=O)N[C@@H](Cc2ccccc2)[C@H](O)C(=O)Nc2cccc(-c3nn[nH]n3)c2)nc(C(=O)NC(C)(C)c2ccccc2)c1 | 74% |  |  |
| CCOc1cc(C(=O)N[C@@H](Cc2ccccc2)[C@H](O)C(=O)Nc2cccc(-c3nn[nH]n3)c2)nc(C(=O)N[C@H](C)c2ccccc2)c1 | 46% |  |  |
| COc1cccc([C@@H](C)NC(=O)c2cc(=O)cc(C(=O)N[C@@H](Cc3ccccc3)[C@H](O)C(=O)Nc3cccc(-c4nn[nH]n4)c3)o2)c1 | 48% |  |  |
| C[C@@H](NC(=O)c1cc(OS(=O)(=O)Cc2ccccc2)cc(C(=O)N[C@@H](Cc2ccccc2)[C@H](O)C(=O)Nc2cccc(-c3nn[nH]n3)c2)n1)c1ccccc1 | 29% |  |  |
| CN(NC(=O)c1cc(=O)cc(C(=O)N[C@@H](Cc2ccccc2)[C@H](O)C(=O)Nc2cccc(-c3nn[nH]n3)c2)o1)c1ccccc1 | 21% |  |  |
| CN(Cc1ccccc1)C(=O)c1cc(=O)cc(C(=O)N[C@@H](Cc2ccccc2)[C@H](O)C(=O)Nc2cccc(-c3nn[nH]n3)c2)o1 | 67% |  |  |
| [N-]=[N+]=Nc1cc(C(=O)N[C@@H](Cc2ccccc2)[C@H](O)C(=O)Nc2cccc(-c3nn[nH]n3)c2)nc(C(=O)N2COC[C@@H]2c2ccccc2)c1 | 95% | 79 nM | 68% |
| CCOc1cc(C(=O)N[C@@H](Cc2ccccc2)[C@H](O)C(=O)Nc2cccc(-c3nn[nH]n3)c2)nc(C(=O)NC(C)(C)c2ccccc2)c1 | 42% |  |  |
| O=C(N[C@@H](CO)c1ccccc1)c1cc(=O)cc(C(=O)N[C@@H](Cc2ccccc2)[C@H](O)C(=O)Nc2cccc(-c3nn[nH]n3)c2)o1 | 11% |  |  |
| CCCN(CCC)C(=O)c1cc(=O)cc(C(=O)N[C@@H](Cc2ccccc2)[C@@H](O)C(=O)Nc2cccc(-c3noc(=O)[nH]3)c2)o1 | 23% |  |  |
| O=C(N[C@@H](Cc1ccccc1)[C@H](O)C(=O)Nc1cccc(-c2nn[nH]n2)c1)c1cc(=O)cc(C(=O)N(Cc2ccccc2)Cc2ccccc2)o1 | 29% |  |  |
| CSc1cc(C(=O)N[C@@H](Cc2ccccc2)[C@H](O)C(=O)Nc2cccc(-c3nn[nH]n3)c2)nc(C(=O)NC(C)(C)c2ccccc2)c1 | 85% |  |  |
| CSc1cc(C(=O)N[C@@H](Cc2ccccc2)[C@H](O)C(=O)Nc2cccc(-c3nn[nH]n3)c2)nc(C(=O)N2COC[C@@H]2c2ccccc2)c1 | 95% | 89 nM | 66% |
| CCOc1cc(C(=O)N[C@@H](Cc2ccccc2)[C@H](O)C(=O)Nc2cccc(-c3nn[nH]n3)c2)nc(C(=O)N2COC[C@@H]2c2ccccc2)c1 | 79% |  |  |

| Structure (SMILES) | inhibition (Beta-secretase 1 [1]) | IC50 (Beta-secretase 1 [2]) | inhibition (Beta-secretase 1 [3]) |
| --- | --- | --- | --- |
| CN(c1cc(C(=O)N[C@@H](Cc2ccccc2)[C@H](O)C(=O)Nc2cccc(-c3nn[nH]n3)c2)nc(C(=O)N2COC[C@@H]2c2ccccc2)c1)S(C)(=O)=O | 75% |  |  |
| CCCN(CCC)C(=O)c1cc(=O)cc(C(=O)N[C@@H](Cc2ccccc2)[C@@H](O)C(=O)Nc2cccc(C(=O)O)c2)o1 | 10% |  |  |
| O=C(NC(c1ccccc1)c1ccccc1)c1cc(=O)cc(C(=O)N[C@@H](Cc2ccccc2)[C@H](O)C(=O)Nc2cccc(-c3nn[nH]n3)c2)o1 | 13% |  |  |
| CC[C@@H](NC(=O)c1cc(=O)cc(C(=O)N[C@@H](Cc2ccccc2)[C@H](O)C(=O)Nc2cccc(-c3nn[nH]n3)c2)o1)c1ccccc1 | 32% |  |  |
| COc1cc(C(=O)N[C@@H](Cc2ccccc2)[C@H](O)C(=O)Nc2cccc(-c3nn[nH]n3)c2)nc(C(=O)N[C@H](C)c2ccccc2)c1 | 73% |  |  |
| C[C@@H](NC(=O)c1cc(=O)cc(C(=O)N[C@@H](Cc2ccccc2)[C@H](O)C(=O)Nc2cccc(-c3nn[nH]n3)c2)o1)c1ccc([N+](=O)[O-])cc1 | 51% |  |  |
| Cc1cc(C(=O)N[C@@H](Cc2ccccc2)[C@H](O)C(=O)Nc2cccc(-c3nn[nH]n3)c2)nc(C(=O)N2COC[C@@H]2c2ccccc2)c1 | 95% |  | 68% |
| C[C@@H](NC(=O)c1cc(=O)cc(C(=O)N[C@@H](Cc2ccccc2)[C@H](O)C(=O)Nc2cccc(-c3nn[nH]n3)c2)o1)c1cccc(F)c1 | 62% |  |  |
| C[C@@H](NC(=O)c1cc(=O)cc(C(=O)N[C@@H](Cc2ccccc2)[C@H](O)C(=O)Nc2cccc(-c3nn[nH]n3)c2)o1)c1ccc(Cl)cc1 | 61% |  |  |
| COc1ccc([C@@H](C)NC(=O)c2cc(=O)cc(C(=O)N[C@@H](Cc3ccccc3)[C@H](O)C(=O)Nc3cccc(-c4nn[nH]n4)c3)o2)cc1 | 70% |  |  |
| C[C@H](NC(=O)c1cc(=O)cc(C(=O)N[C@@H](Cc2ccccc2)[C@H](O)C(=O)Nc2cccc(-c3nn[nH]n3)c2)o1)c1ccccc1 | 25% |  |  |
| C[C@@H](NC(=O)c1cc(=O)cc(C(=O)N[C@@H](Cc2ccccc2)[C@H](O)C(=O)Nc2cccc(-c3nn[nH]n3)c2)o1)c1ccc(F)cc1 | 76% |  |  |
| O=C(NCc1ccccc1)c1cc(=O)cc(C(=O)N[C@@H](Cc2ccccc2)[C@H](O)C(=O)Nc2cccc(-c3nn[nH]n3)c2)o1 | 25% |  |  |
| CCCN(CCC)C(=O)c1cc(=O)cc(C(=O)N[C@@H](Cc2ccccc2)[C@H](O)C(=O)Nc2cccc(-c3nnn[nH]3)c2)o1 | 6% |  |  |
| Nc1cc(C(=O)N[C@@H](Cc2ccccc2)[C@H](O)C(=O)Nc2cccc(-c3nn[nH]n3)c2)nc(C(=O)N2COC[C@@H]2c2ccccc2)c1 | 78% |  | 53% |
| CCCOc1cc(C(=O)N[C@@H](Cc2ccccc2)[C@H](O)C(=O)Nc2cccc(-c3nn[nH]n3)c2)nc(C(=O)N2COC[C@@H]2c2ccccc2)c1 | 64% |  |  |
| CCCN(CCC)C(=O)c1cc(=O)cc(C(=O)N[C@@H](Cc2ccccc2)[C@@H](O)C(=O)Nc2cccc(-c3nnn[nH]3)c2)o1 | 60% |  |  |
| CSc1cc(C(=O)N[C@@H](Cc2ccccc2)[C@H](O)C(=O)Nc2cccc(-c3nn[nH]n3)c2)nc(C(=O)N[C@H](C)c2ccccc2)c1 | 82% |  |  |
